Data taken from patent US5462926A (Biomeasure, Inc., priority 1993, dated 1995).
Where two headings read alike, the source gives them in different places. Where a SMILES comes first, the peptide text is derived from it. Bridges are numbered along the chain shown (N, C = ends). [ ]: non-standard residue; d: D form. 2Nal = N[C@@H](Cc1ccc2ccccc2c1)C(=O)O; d2Nal = N[C@H](Cc1ccc2ccccc2c1)C(=O)O

What was measured:
rat NMB receptor = target: T1, rat NMB receptor (Rattus norvegicus, UniProt P24053); test: Binding of 125I-[D-Tyr0]NMB to NMB-R transfected BALB 3T3 cells; details: for fold decrease in NMB receptor affinity compared with cyclo SS-octa (#1): structure-function comparison from Table 1
T1 construct: a full length NMB-preferring bombesin receptor clone generated from rat esophagus; expressed in transfected cells
T1 sequence (P24053 1-390): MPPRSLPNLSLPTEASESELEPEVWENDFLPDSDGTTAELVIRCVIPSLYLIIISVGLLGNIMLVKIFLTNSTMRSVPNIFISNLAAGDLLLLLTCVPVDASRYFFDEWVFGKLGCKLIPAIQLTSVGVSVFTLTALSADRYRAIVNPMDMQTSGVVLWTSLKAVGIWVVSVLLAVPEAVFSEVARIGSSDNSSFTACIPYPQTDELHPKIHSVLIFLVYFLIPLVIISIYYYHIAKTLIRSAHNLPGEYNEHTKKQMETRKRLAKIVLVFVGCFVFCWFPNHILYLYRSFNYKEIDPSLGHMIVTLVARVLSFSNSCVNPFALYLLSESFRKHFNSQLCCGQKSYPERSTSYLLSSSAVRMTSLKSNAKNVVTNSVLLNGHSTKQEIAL

NMB receptor = target: T2, NMB receptor (Rattus norvegicus, UniProt P24053); test: [3H]inositol phosphates in NMB-R transfected cells (alone or NMB-stimulated); assay type: cell-based; parameters: a full length NMB-preferring bombesin receptor clone generated from rat esophagus; expressed in transfected cells; details: NMB-R transfected cells; for IC50 / effect at 10 μM on NMB-stimulated increase in [3H]IP: 3 nM NMB; for [3H]IP, analog Alone (10 μM): analog 10 μM alone, control 13 ± 3; for [3H]IP, analog Plus NMB (3 nM): analog 10 μM plus NMB 3 nM, NMB without analog 186 ± 58
T2 sequence (P24053 1-390): T1 sequence (P24053 1-390)
Summary of the method: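 BALB 3T3 cells stably expressing rat NMB receptor, labelled 48 h at 37 °C with 100 μCi/ml myo-[3H]inositol, preincubated 15 min in buffer with 10 mM LiCl, then exposed 60 min at 37 °C to agonists or to 3 nM NMB plus antagonists. Total [3H]inositol phosphates isolated by anion-exchange chromatography.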

[1] = target: T3, NMB receptors on C-6 cells (Rattus norvegicus, UniProt P24053); test: Binding of 125I-[D-Tyr0]NMB to C-6 glioblastoma cells; details: Ki by Cheng method, read-out: Ki 125I-NMB Binding, NMB Receptor, C-6 Cells
T3 construct: endogenous in cells; host or cells: rat glioblastoma C-6 cells
T3 sequence (P24053 1-390): T1 sequence (P24053 1-390)
Summary of the method: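 Disaggregated rat C-6 glioblastoma cells (15×10^6/ml) or NMB-R-transfected cells (2×10^6/ml) were incubated with 75 pM 125I-[D-Tyr0]NMB for 60 min at 22° C in HEPES binding buffer with 0.2% BSA, pH 7.4. Values are saturable binding: total minus binding in the presence of excess unlabelled NMB.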

mu opioid receptors = target: T4, mu opioid receptors (Rattus norvegicus, UniProt P33535); test: Mu opioid membrane assay, [3H]DAGO, rat forebrain membranes; assay type: binding; details: Cheng method; unit inferred; read-out: affinity, [3H]DAGO, Rat Forebrain membranes (mu opioid receptors)
T4 construct: rat forebrain (TRH, mu and delta opioid membrane assays); from tissue; host or cells: rat forebrain membranes
T4 sequence (P33535 whole entry): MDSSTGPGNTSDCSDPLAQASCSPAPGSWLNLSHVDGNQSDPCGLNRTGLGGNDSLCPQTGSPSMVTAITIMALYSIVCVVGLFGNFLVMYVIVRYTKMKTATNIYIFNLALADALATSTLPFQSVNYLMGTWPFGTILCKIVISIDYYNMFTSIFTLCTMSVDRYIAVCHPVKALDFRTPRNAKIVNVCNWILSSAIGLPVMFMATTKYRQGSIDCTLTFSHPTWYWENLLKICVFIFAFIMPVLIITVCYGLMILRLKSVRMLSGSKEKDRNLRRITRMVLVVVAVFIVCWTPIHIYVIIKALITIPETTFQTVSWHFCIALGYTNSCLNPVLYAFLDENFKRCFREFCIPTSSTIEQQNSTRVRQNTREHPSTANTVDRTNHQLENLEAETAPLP

GRP receptor = GRP receptor (Rattus norvegicus, UniProt P52500); test: GRP membrane receptor assay, 125I-[Tyr4]Bn, AR 42J cell membranes; assay type: binding; parameters: endogenous in cells; host or cells: rat AR 42J pancreatic acinar tumor cell membranes; details: read-out: affinity, 125I-[Tyr4]Bn, AR 42J Cell Membranes (GRP receptors); Cheng method; unit inferred
Chain of GRP receptor (P52500 whole entry): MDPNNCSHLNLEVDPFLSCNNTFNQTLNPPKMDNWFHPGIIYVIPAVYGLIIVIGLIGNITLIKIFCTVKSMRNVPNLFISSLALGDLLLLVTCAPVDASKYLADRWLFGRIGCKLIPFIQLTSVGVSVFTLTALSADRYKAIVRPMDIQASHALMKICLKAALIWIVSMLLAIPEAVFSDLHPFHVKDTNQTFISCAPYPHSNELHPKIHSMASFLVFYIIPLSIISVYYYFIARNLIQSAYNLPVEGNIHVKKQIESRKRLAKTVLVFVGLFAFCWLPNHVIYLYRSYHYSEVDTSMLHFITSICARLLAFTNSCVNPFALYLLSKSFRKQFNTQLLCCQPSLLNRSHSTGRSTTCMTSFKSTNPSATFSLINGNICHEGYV

[2] = NMB-R transfected BALB 3T3 cells, Ki by Cheng method, read-out: Ki 125I-NMB Binding, NMB Receptor, Transfected Cells
[3] = read-out: IC50 NMB-stimulated [3H]IP, NMB Receptor, Transfected Cells
[4] = read-out: IC50 NMB-stimulated [3H]IP, Transfected Cells (values in μM)

| SMILES | Ki (rat NMB receptor; [2]) | fold decrease in NMB receptor affinity compared with cyclo SS-octa (#1) (rat NMB receptor) | IC50 (NMB receptor; [3]) | effect at 10 μM on NMB-stimulated increase in [3H]IP (NMB receptor) | [3H]IP, analog Alone (10 μM) (NMB receptor) | [3H]IP, analog Plus NMB (3 nM) (NMB receptor) | Ki [1] | Ki (mu opioid receptors) | Ki (GRP receptor) | IC50 (NMB receptor; [4]) | fold by which cyclo SS-octa is more potent than the analog, 125I-NMB binding (rat NMB receptor; NMB-R transfected cells) | Ki (rat NMB receptor; NMB-R transfected cells, value or range given for a group, read-out: K1, 125I-NMB binding to NMB-R transfected cells (text)) |
| --- | --- | --- | --- | --- | --- | --- | --- | --- | --- | --- | --- | --- |
| CC(C)[C@@H]1NC(=O)[C@H](CCCCN)NC(=O)[C@@H](Cc2c[nH]c3ccccc23)NC(=O)[C@H](Cc2ccc(O)cc2)NC(=O)[C@H](NC(=O)[C@H](N)Cc2ccc3ccccc3c2)CSSC[C@@H](C(=O)N[C@@H](Cc2ccc3ccccc3c2)C(N)=O)NC1=O [Analog #10, H2 -D-Nal-D-Cys-Tyr-D-Trp-Lys-Val-Cys-Nal-NH2] (H-[d2Nal][dC]Y[dW]KVC[2Nal]-NH2; disulfide 2-7) | 0.96 ± 0.109 µM | 5 fold | 3.99 ± 0.781 µM | completely inhibited | 10 ± 3 dym × 10^3 | 4 ± 2 dym × 10^3 | 1.15 ± 0.518 µM | 1.02 µM | 1.5 ± 0.16 µM | – | – | – |
| CC(C)[C@@H]1NC(=O)[C@H](CCCCN)NC(=O)[C@@H](Cc2c[nH]c3ccccc23)NC(=O)[C@H](Cc2ccc(O)cc2)NC(=O)[C@@H](NC(=O)[C@H](N)Cc2ccc3ccccc3c2)CSSC[C@H](C(=O)N[C@@H](Cc2ccc3ccccc3c2)C(N)=O)NC1=O [Analog #11, H2 -D-Nal-Cys-Tyr-D-Trp-Lys-Val-D-Cys-Nal-NH2] (H-[d2Nal]CY[dW]KV[dC][2Nal]-NH2; disulfide 2-7) | 1.08 ± 0.199 µM | 5 fold | 1.43 ± 0.119 µM | completely inhibited | 10 ± 1 dym × 10^3 | 7 ± 4 dym × 10^3 | 1.74 ± 0.345 µM | > 10 µM | 7.62 ± 1.26 µM | 1.2 to 1.8 µM | – | – |
| CC(C)[C@@H]1NC(=O)[C@H](CCCCN)NC(=O)[C@@H](Cc2c[nH]c3ccccc23)NC(=O)[C@H](Cc2ccc(O)cc2)NC(=O)[C@@H](NC(=O)[C@H](N)Cc2c[nH]c3ccccc23)CSSC[C@@H](C(=O)N[C@@H](Cc2ccc3ccccc3c2)C(N)=O)NC1=O [Analog #12, H2 -D-Trp-Cys-Tyr-D-Trp-Lys-Val-Cys-Nal-NH2] (H-[dW]CY[dW]KVC[2Nal]-NH2; disulfide 2-7) | 1.41 ± 0.127 µM | 4 to 7 fold | 4.69 ± 0.927 µM | – | 9 ± 2 dym × 10^3 | 43 ± 2 dym × 10^3 | 1.78 ± 0.109 µM | > 10 µM | 2.1 ± 0.15 µM | – | 9 fold | 1.4 to 2.3 µM |
| NCCCC[C@@H]1NC(=O)[C@@H](Cc2c[nH]c3ccccc23)NC(=O)[C@H](Cc2ccc(O)cc2)NC(=O)[C@@H](NC(=O)[C@H](N)Cc2ccc3ccccc3c2)CSSC[C@@H](C(=O)N[C@@H](Cc2ccc3ccccc3c2)C(N)=O)NC(=O)[C@H](Cc2ccccc2)NC1=O [Analog #13, H2 -D-Nal-Cys-Tyr-D-Trp-Lys-Phe-Cys-Nal-NH2] (H-[d2Nal]CY[dW]KFC[2Nal]-NH2; disulfide 2-7) | 0.397 ± 0.072 µM | 2 to 3 fold | 1.17 ± 0.114 µM | completely inhibited | 10 ± 1 dym × 10^3 | 9 ± 4 dym × 10^3 | 0.213 ± 0.013 µM | 1.64 µM | 2.15 ± 0.2 µM | 1.2 to 1.8 µM | 2 fold | – |
| CC(C)[C@@H]1NC(=O)[C@H](Cc2c[nH]cn2)NC(=O)[C@@H](Cc2c[nH]c3ccccc23)NC(=O)[C@H](Cc2ccc(O)cc2)NC(=O)[C@@H](NC(=O)[C@H](N)Cc2ccc3ccccc3c2)CSSC[C@@H](C(=O)N[C@@H](Cc2ccc3ccccc3c2)C(N)=O)NC1=O [Analog #14] (H-[d2Nal]CY[dW]HVC[2Nal]-NH2; disulfide 2-7; N-terminus assumed) | 9.86 ± 1.29 µM | 50 fold | 11.9 ± 1.83 µM | – | 8 ± 1 dym × 10^3 | 97 ± 7 dym × 10^3 | 4.94 ± 0.93 µM | 0.5 µM | 3.1 ± 0.7 µM | – | 45 fold | – |
| CC(C)[C@@H]1NC(=O)[C@H](CCCCN)NC(=O)[C@@H](Cc2ccc3ccccc3c2)NC(=O)[C@H](Cc2ccc(O)cc2)NC(=O)[C@@H](NC(=O)[C@H](N)Cc2ccc3ccccc3c2)CSSC[C@@H](C(=O)N[C@@H](Cc2ccc3ccccc3c2)C(N)=O)NC1=O [Analog #17, H2 -D-Nal-Cys-Tyr-D-Nal-Lys-Val-Cys-Nal-NH2] (H-[d2Nal]CY[d2Nal]KVC[2Nal]-NH2; disulfide 2-7) | 0.399 ± 0.068 µM | – | 1.78 ± 0.295 µM | completely inhibited | 12 ± 4 dym × 10^3 | 15 ± 2 dym × 10^3 | 0.313 ± 0.033 µM | 1.57 µM | 3.71 ± 0.2 µM | 1.2 to 1.8 µM | 2 fold | – |
